The text below walks through data of publication PMC10216581, “Homogeneous, Synthetic, Non-Saccharide Glycosaminoglycan Mimetics as Potent Inhibitors of Human Cathepsin G” (Biomolecules, 2023).

The target of this experiment is T1, Human CatG (Homo sapiens, UniProt P08311).
T1 construct: purchased Elastin Products Company (Owensville, MO, USA)
T1 sequence (P08311 21-255): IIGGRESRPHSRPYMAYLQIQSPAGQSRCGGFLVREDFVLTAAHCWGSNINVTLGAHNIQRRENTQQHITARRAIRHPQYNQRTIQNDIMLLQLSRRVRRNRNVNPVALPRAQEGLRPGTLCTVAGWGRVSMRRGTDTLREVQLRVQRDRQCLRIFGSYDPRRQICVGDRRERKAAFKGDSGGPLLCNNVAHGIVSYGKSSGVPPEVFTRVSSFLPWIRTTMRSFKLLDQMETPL
Nature of the experiment: Salt dependence of CatG inhibition by NSGM 25 (ionic/nonionic binding energy). It is filed as biochemical. As to the method:
Each KI value was calculated from the corresponding IC50 using the Cheng–Prusoff equation [43]. A double-log plot of the KI against Na^+ concentration was prepared and analyzed using the equation log KI=log KI,NONIONIC+ZψlogNa^+ . Here, the slope corresponds to the number of ion-pair interactions (Z) and the counterions released per negative charge upon ion binding (ψ = 0.8), while the intercept corresponds to the nonionic affinity (KI,NONIONIC). The contributions of ionic and nonionic binding energies to the interactions were obtained from the slope and intercept of the plot in Excel.
A fundamental point being advanced in NSGM-based mimicry is the presumed increase in hydrophobic forces contributing to binding affinity. As is well-recognized, heparin and other GAGs utilize primarily electrostatic forces in binding to proteins. […] The resolution of overall binding energy into ionic and nonionic contributions is typically achieved by performing affinity measurements as a function of the ionic strength of the buffer. According to the protein–polyelectrolyte theory, the two contributions can be resolved from a double-log plot of binding affinity against the Na^+ concentration, as defined by the equation log KI = log KI,NONIONIC + Zψ × log [Na^+], where Z represents the number of salt interactions, and ψ is the proportion of Na^+ released per anion upon ligand binding and is equal to 0.8 for heparin [55].
Figure 6 Salt dependence of CatG inhibition by NSGM 25. (A) Salt-dependent direct inhibition of CatG by NSGM 25. Data were obtained using substrate S-7388 in a chromogenic substrate hydrolysis assay. Solid lines represent sigmoidal dose–response analysis (Equation (1)) of the data to obtain IC50, ΔY%, and HS. Errors represent ± 1 S.E. (B) A double-log plot of the KI calculated using Cheng–Rusoff equation for uncompetitive inhibition against the concentration of salt.
The measured IC50s of our allosteric inhibitors are distinct from inhibition constants KI, which are thermodynamic constants. Cheng and Prusoff provided a mathematical foundation for the transformation of IC50s into KIs for uncompetitive inhibitors. In their formulation, KI is equal to IC50 × [S]/(KM + [S]), which is directly applicable to our study. Thus, it becomes possible to utilize the linear double-log analysis described above for our NSGM 25, which is an uncompetitive inhibitor. […] Linear regression yielded a slope of 2.94 and an intercept of −4.32 (Table 5). Whereas the former corresponds to an ionic binding energy of […] at 37 °C and 100 mM salt, the latter yields a nonionic binding energy of 6.12 kcal/mol. […] Such important roles of two forces have not been observed earlier. More importantly, the higher nonionic component bodes well for the discovery of second-generation inhibitors with higher selectivity.

Where [1] appears, read: linear regression of log KI versus log[Na+].

Marks after values point to notes of the source that are not given here.

Consider `O=c1c(OS(=O)(=O)O)c(-c2ccc(OS(=O)(=O)O)c(OS(=O)(=O)O)c2)oc2cc(OS(=O)(=O)O)cc(OCc3ccc(COc4cc(OS(=O)(=O)O)cc5oc(-c6ccc(OS(=O)(=O)O)c(OS(=O)(=O)O)c6)c(OS(=O)(=O)O)c(=O)c45)cc3)c12` [NSGM 25], for which the HS runs as follows: (50 mM NaCl) 1.3 ± 0.4; (100 mM NaCl) 0.7 ± 0.1; (150 mM NaCl) 1.6 ± 0.3; (200 mM NaCl) 2.0 ± 0.5. For the same molecule, the IC50 (50 mM NaCl) is 0.043 ± 0.01 µM; the IC50 (50 mM NaCl, pH 7.4, 37 °C) was found to be 0.0427 ± 0.01 µM; the IC50 (100 mM NaCl, pH 7.4, 37 °C) came out at 0.0526 ± 0.0122 µM; the IC50 (150 mM NaCl, pH 7.4, 37 °C) was 0.319 ± 0.0445 µM; the IC50 (200 mM NaCl, pH 7.4, 37 °C) was determined as 3.45 ± 0.517 µM. Also, the ΔY is reported as 87.7 ± 7.3 ^b % (50 mM NaCl), 74.4 ± 2.9% (150 mM NaCl) and 73.2 ± 4.9% (200 mM NaCl). In addition, the Ki by setting is: (50 mM NaCl, calculated from IC50 with Cheng-Prusoff equation (uncompetitive)) 0.0109 ± 0.0039 µM; (100 mM NaCl, calculated from IC50 with Cheng-Prusoff equation) 0.0192 ± 0.0053 µM; (150 mM NaCl, calculated from IC50 with Cheng-Prusoff equation) 0.148 ± 0.054 µM; (200 mM NaCl, calculated from IC50 with Cheng-Prusoff equation) 1.67 ± 0.48 µM. For the setting “37 °C and 100 mM salt”, the ionic binding energy came to 4.88 kcal/mol. Also, the “loss in inhibition potency” value (NaCl increased from 50 mM to 200 mM) is listed as ~ 80 fold. For the same molecule, the “ΔGNON-IONIC (nonionic binding energy)” value (from intercept of double-log plot) was 6.12 kcal/mol. Besides, the Intercept under setting [1] is −4.32. Also, the Slope under setting [1] came to 2.94. Under “share of binding energy”, the ΔGIONIC came out at 44.4%. The ΔGNON-IONIC (share of binding energy) came to 55.6%.

One may read the IC50 as the point on the concentration scale where inhibition reaches its midpoint. Usually Ki stands for the dissociation constant of the complex between target and ligand, obtained from inhibition or displacement.
